Assays:
Format in all cases: cell-based
[1] = target: T1, PPARδ (Mus musculus, UniProt P35396); test: PPRE-TK-LUC reporter transient transfection, PPARδ; conditions: 20 μM AJA (FIG. 3C)
T1 construct: expressed in transfected cells; host or cells: HEK293 / HEK293T
T1 sequence (P35396 1-440): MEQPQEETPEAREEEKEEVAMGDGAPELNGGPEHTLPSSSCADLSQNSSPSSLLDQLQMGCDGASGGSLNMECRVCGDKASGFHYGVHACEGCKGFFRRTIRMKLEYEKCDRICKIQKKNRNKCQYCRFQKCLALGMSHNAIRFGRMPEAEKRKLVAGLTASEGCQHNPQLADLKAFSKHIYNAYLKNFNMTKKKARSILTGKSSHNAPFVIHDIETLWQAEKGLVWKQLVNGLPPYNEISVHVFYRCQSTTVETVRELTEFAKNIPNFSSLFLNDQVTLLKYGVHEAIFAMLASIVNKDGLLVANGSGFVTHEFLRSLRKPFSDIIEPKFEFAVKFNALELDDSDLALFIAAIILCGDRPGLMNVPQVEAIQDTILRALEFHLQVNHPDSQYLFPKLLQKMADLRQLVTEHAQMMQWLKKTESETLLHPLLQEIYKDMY
Experimental: For PPARγ activation assay, HEK293 cells were plated in 12-well cell culture plates and maintained in Dulbecco's modified Eagle's medium (DMEM) supplemented with 10% fetal bovine serum (FBS) at 37° C. under 5% CO2. Cells were changed to phenol red-free DMEM supplemented with 10% charcoal-stripped fetal bovine serum 3 hours before transfection by a standard calcium-phosphate precipitation method. Twelve hours after transfection, the cells were washed with phosphate-buffered saline (PBS) and fed again with fresh medium containing the indicated concentrations of compounds. After 36 hours, cells were harvested for β-galactosidase and luciferase activities as described previously (Li et al., Proc Natl Acad Sci USA 94:8479-84, 1997). The average normalized luciferase activity was determined via triplicate experiments. For IL-8 promoter assay, HeLa cells were maintained and transfected in the same way as described above. After transfection, cells were recovered for 4 hours before treatment with AJA, GW347845, or solvent. After 3-4 hours, cells were treated with or without 25 nM of phorbol myristate acetate (PMA) for 24 hours.
In an effort to confirm that AJA activates PPARγ selectively, the ability of AJA to activate PPARα and PPARδ was analyzed in a similar transient transfection assay.

[2] = target: T2, hRXRα (Homo sapiens, UniProt P19793); test: DR1-TK-LUC reporter assay, RXRα; conditions: saturating concentrations, HEK293 cells
T2 construct: expressed in transfected cells; host or cells: HEK293
T2 sequence (P19793 1-462): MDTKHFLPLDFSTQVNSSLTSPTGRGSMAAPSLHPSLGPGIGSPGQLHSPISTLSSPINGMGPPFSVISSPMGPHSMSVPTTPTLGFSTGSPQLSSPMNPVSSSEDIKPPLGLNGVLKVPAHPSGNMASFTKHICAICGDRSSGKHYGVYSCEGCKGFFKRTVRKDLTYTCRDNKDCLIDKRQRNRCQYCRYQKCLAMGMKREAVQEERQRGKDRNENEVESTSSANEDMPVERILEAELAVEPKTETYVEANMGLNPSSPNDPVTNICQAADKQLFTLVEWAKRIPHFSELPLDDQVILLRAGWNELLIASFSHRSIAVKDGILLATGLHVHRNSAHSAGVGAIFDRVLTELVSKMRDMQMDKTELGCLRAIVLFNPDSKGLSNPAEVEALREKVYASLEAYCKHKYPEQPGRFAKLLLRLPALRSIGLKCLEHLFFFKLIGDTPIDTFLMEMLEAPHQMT

[3] = system: PPARγ2 and aP2 gene expression in 3T3 L1 cells; test: RT-PCR of adipocyte-specific genes; conditions: versus vehicle control
Experimental: The adipocyte differentiation assay was performed as described by Mukherjee et. al. (Mol Endocrinol 14: 1425-33, 2000). The 3T3 L1 cells (American Type Culture Collection) were cultured in DMEM media supplemented with 10% calf serum. Two days after reaching confluence, cells were treated with AJA, GW347845, or vehicle (0.1% DMSO) in the presence of 10 μg/ml insulin every other day. After 10 days of treatment with AJA or 7 days with GW347845 at confluence, cells were fixed and stained with Oil Red O (Sigma). For RT-PCR, total cellular RNAs were isolated by TRIzol (Gibco). Reverse transcriptase polymerase chain reaction (RT-PCR) was performed using the superscript first-strand synthesis kit (Invitrogen). After first-strand cDNA was synthesized by use of oligo (dT), cDNA was amplified by PCR. The forward primers and reverse primers used in the amplifications were 5′-GCTGTTATGGGTGAAACTCTGGGAG-3′(SEQ ID NO: 1), and 5′-CTTCATGAGGCCTGTTGTAGAGC-3′ (SEQ ID NO:2), for PPARγ2, 5′-GAGCAAATGGAGTTCCCAGATG-3′ (SEQ ID NO: 3), and 5′-GCAAACAATGGGAATAGTTCACAGTAG-3′ (SEQ ID NO: 4), for aP2, and 5′-GACCACAGTCCATGCCATCAC-3′(SEQ ID NO: 5), and 5′-CATACCAGGAAATGAGCTGAC-3′ (SEQ ID NO: 6), for GAPDH. PCR amplifications were performed in 50 μL volume with Taq DNA polymerase for 30 cycles.
To confirm that AJA and GW347845 induce 3T3 L1 cell differentiation into adipocytes, the expression levels of the adipocyte-specific genes PPARγ2 and aP2 were measured by RT-PCR. Total RNA was isolated after AJA or GW347845 treatment, and compared with vehicle control. Reverse transcription was conducted and the relative amounts of PPARγ2 and aP2 transcripts were measured by PCR reactions using primer sets specific to each gene. PCR products were analyzed on 1% agarose gel and stained with Ethidium Bromide. […] As a control for the induction specificity and the PCR amplification reaction, the expression levels of GADPH were measured in all samples, and found not affected by any treatment.

Structure (SMILES): CCCCCCC(C)(C)c1cc(O)c2c(c1)OC(C)(C)[C@@H]1CC=C(C(=O)O)C[C@@H]21 [AJA, dimethylheptyl-THC-11-oic acid]
- activation of PPARδ [1]: neither did AJA activate PPARδ
- activation of reporter via RXRα [2]: failed to activate the reporter
- PPARγ2 gene expression [3]: enhanced PPARγ2 and aP2 gene expression significantly
- aP2 gene expression [3]: enhanced PPARγ2 and aP2 gene expression significantly

Source: US20040186166A1, “Cannabinoid analogs as peroxisome proliferator activated nuclear receptor gamma activators” (priority 2002, published 2004)
